Values joined by “and” are separate entries in the source; they are usually repeats but may differ in a detail not shown here. Equal entries are not always repeated. Structures can show the parent of a compound that is named as a salt.
Columns and labels:
[1] = molecular target: human RORγt ligand binding domain (RORγt LBD) (Homo sapiens (Human), UniProt P51449); assay: RORγt ThermoFluor assay (thermal shift, binding affinity); conditions: estimated from thermal shift concentration response
Description: This approach is applicable to a wide variety of systems, and rigorous in theoretical interpretation through quantitation of equilibrium binding constants (KD).
The shift in the melting point described as a ΔTm is proportional to the concentration and affinity of the ligand.
ThermoFluor® experiments were carried out using instruments owned by Janssen Research and Discovery, L.L.C. through its acquisition of 3-Dimensional Pharmaceuticals, Inc. 1,8-ANS (Invitrogen) was used as a fluorescent dye. Protein and compound solutions are dispensed into black 384-well polypropylene PCR microplates (Abgene) and overlayed with silicone oil (1 μL, Fluka, type DC 200) to prevent evaporation.
Bar-coded assay plates are robotically loaded onto a thermostatically controlled PCR-type thermal block and then heated at a typical ramp-rate of 1° C./min for all experiments. Fluorescence was measured by continuous illumination with UV light (Hamamatsu LC6) supplied via fiber optic and filtered through a band-pass filter (380-400 nm; >60D cutoff). Fluorescence emission of the entire 384-well plate was detected by measuring light intensity using a CCD camera (Sensys, Roper Scientific) filtered to detect 500±25 nm, resulting in simultaneous and independent readings of all 384 wells. Images were collected at each temperature, and the sum of the pixel intensity in a given area of the assay plate was recorded versus temperature. Reference wells contained RORγt without compounds, and the assay conditions were as follows: • 0.065 mg/mL RORγt • 60 μM 1,8-ANS • 100 mM Hepes, pH 7.0 • 10 mM NaCl • 2.5 mM GSH • 0.002% Tween-20
Project compounds were arranged in a pre-dosed mother plate (Greiner Bio-one) wherein compounds are serially diluted in 100% DMSO by 1:2 from a high concentration of 10 mM over 12 columns within a series (column 12 is a reference well containing DMSO, no compound). The compounds were robotically dispensed directly into assay plates (1x=[…]) using a Hummingbird capillary liquid handling instrument (Digilab). Following compound dispense, protein and dye in buffer was added to achieve the final assay volume of 3 μL, followed by 1 μL of silicone oil.

human RORγt LBD = human RORγt LBD (Homo sapiens (Human), UniProt P51449); assay: RORγt reporter assay (GAL4-RORγt LBD luciferase, HEK293T cells); format: cell-based; conditions: for RORγt reporter Assay, % inhibition @ 6 μM / IC50: HEK293T cells; for IC50: 24 hours compound treatment; for inhibition at 6 µM: HEK-293T, read-out: RORγt reporter Assay, % inhibition @ 6 μM, 6 μM, HEK293T cells
Excerpt: A reporter assay was used to test functional activity of RORγt modulatory compounds on transcriptional activation driven by the RORγt LBD. Cells used in the assay were co-transfected with two constructs. The first construct, pBIND-RORγt LBD, contained the wild type human RORγt LBD fused to the DNA binding domain of the GAL4 protein. The second construct, pGL4.31 (Promega Cat no. C935A), contained multiple GAL4 responsive DNA elements upstream of firefly luciferase. […] The mutant construct was called pBIND-RORγt-AF2. […] The pBIND vector contains the GAL4 DNA Binding Domain (GAL4 DBD) and the renilla luciferase gene under control of the SV40 promoter. Renilla luciferase expression serves as a control for transfection efficiency and cell viability.
The reporter assay was performed by transiently transfecting HEK293T cells with 5 μg of pBIND-RORγt LBD or pBIND-RORγt LBD-AF2 and 5 μg pGL4.31 (Promega Cat no. C935A) using Fugene 6 (Invitrogen Cat no. E2691) at a 1:6 ratio of DNA: Fugene 6 in a T-75 flask in which cells were at least 80% confluent. Twenty four hours after bulk transfection, cells were plated into 96-well plates at 50,000 cells/well in phenol-red free DMEM containing 5% Lipid Reduced FCS and Pen/Strep. Six hours after plating, cells were treated with compounds for 24 hours. Media was removed and cells were lysed with 50 μL 1x Glo Lysis Buffer (Promega). Dual Glo Luciferase Reagent (50 μL/well) was then added and firefly luciferase luminescence was read on an Envision after a ten minute incubation. Finally, Stop and Glo reagent (50 μL/well) was added and renilla luciferase luminescence was read on an Envision after a ten minute incubation. To calculate the effect of compounds on RORγt activity, the ratio of firefly to renilla luciferase was determined and plotted against compound concentration. Agonist compounds increase RORγt-driven luciferase expression, and antagonist or inverse agonist compounds decrease luciferase expression.

[2] = tested on: IL-17 production by CD4 T cells; assay: Human Th17 assay; format: cell-based; conditions: IL-17 in supernatant after 3 days, human CD4+ T cells under Th17 differentiation
Excerpt: The human Th17 assay tests the effect of RORγt modulatory compounds on IL-17 production by CD4 T cells under conditions which favor Th17 differentiation.
Total CD4^+ T cells were isolated from the peripheral blood mononuclear cells (PBMC) of healthy donors using a CD4^+ T cell isolation kit II, following the manufacturer's instructions (Miltenyi Biotec). Cells were resuspended in a medium of RPMI-1640 supplemented with 10% fetal bovine serum, penicillin, streptomycin, glutamate, and β-mercaptoethanol and were added to 96-well plates at 1.5×10^5 per 100 μL per well. 50 μL of compound at titrated concentrations in DMSO were added into each well at final DMSO concentration at 0.2%. Cells were incubated for 1 hour, then 50 μL of Th17 cell differentiation medium was added to each well. The final concentrations of antibodies and cytokines (R&D Systems) in differentiation medium were: 3×10^6/mL anti-CD3/CD28 beads (prepared using human T cell activation/expansion kit, Miltenyi Biotec), 10 μg/mL anti-IL4, 10 μg/mL anti-IFNγ, 10 ng/mL IL113, 10 ng/mL IL23, 50 ng/mL IL6, 3 ng/mL TGFβ and 20 U/mL IL2. Cells were cultured at 37° C. and 5% CO2 for 3 days. Supernatants were collected and the accumulated IL-17 in culture was measured by using MULTI-SPOT® Cytokine Plate following manufacture's instruction (Meso Scale Discovery). The plate was read using Sector Imager 6000, and IL-17 concentration was extrapolated from the standard curve. The IC50s were determined by GraphPad.

human RORγt LBD, sequence (P51449 258-518): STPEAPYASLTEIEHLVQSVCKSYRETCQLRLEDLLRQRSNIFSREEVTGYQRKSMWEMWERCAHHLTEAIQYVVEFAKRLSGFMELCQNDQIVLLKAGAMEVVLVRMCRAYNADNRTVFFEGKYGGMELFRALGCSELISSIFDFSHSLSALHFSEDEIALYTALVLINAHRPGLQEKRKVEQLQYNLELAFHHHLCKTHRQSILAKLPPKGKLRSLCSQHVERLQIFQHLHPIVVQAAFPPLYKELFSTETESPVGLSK
human RORγt ligand binding domain (RORγt LBD), sequence (P51449 other isoform, or with tags, fused parts or gaps): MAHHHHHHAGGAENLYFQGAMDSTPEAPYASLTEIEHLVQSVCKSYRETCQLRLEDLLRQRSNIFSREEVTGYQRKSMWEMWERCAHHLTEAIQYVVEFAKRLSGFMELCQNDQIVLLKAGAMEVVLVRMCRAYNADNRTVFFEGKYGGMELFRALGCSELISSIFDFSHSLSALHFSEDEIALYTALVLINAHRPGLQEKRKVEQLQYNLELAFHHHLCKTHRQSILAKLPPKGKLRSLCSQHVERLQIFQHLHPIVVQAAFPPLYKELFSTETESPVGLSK

SMILES | Kd [1] [µM] | RORγt reporter Assay, % inhibition @ 6 μM (human RORγt LBD) [%] | IC50 (human RORγt LBD) | inhibition at 6 µM (human RORγt LBD) [%] | IC50 ([2]; Homo sapiens, CD4+ T, 72 h) [µM] | IC50 [2] [µM]
Cn1cncc1C(O)(c1ccc(C(F)(F)F)nc1)c1ccc2nc(C#N)c(Oc3ccccc3)c(C#N)c2c1 (single isomer, unassigned) [Example 22b, 6-(Hydroxy(1-methyl-1H-imidazol-5-yl)(6-(trifluoromethyl)pyridin-3-yl)methyl)-3-phenoxyquinoline-2,4-dicarbonitrile] | 0.0029 | 48 | ~6 µM and > 6 µM |  |  | 
Cn1cncc1C(O)(c1ccc(C(F)(F)F)nc1)c1ccc2nc(C#N)c(Oc3ccccc3)c(C#N)c2c1 (single isomer, unassigned) [Example 22c, 6-(Hydroxy(1-methyl-1H-imidazol-5-yl)(6-(trifluoromethyl)pyridin-3-yl)methyl)-3-phenoxyquinoline-2,4-dicarbonitrile] | 0.097 | 88 | 0.68 µM |  |  | 
Cn1cncc1C(O)(c1ccc(Cl)cc1)c1ccc2nc(N3CCC3)c(Oc3ccc(C#N)cc3)c(Cl)c2c1 (single isomer, unassigned) [Example 32b, 4-((2-(Azetidin-1-yl)-4-chloro-6-((4-chlorophenyl)(hydroxyl)(1-methyl-1H-imidazol-5-yl)methyl)quinolin-3-yl)oxy)benzonitrile] |  |  |  | 101 | 0.11 | 
Cn1cncc1C(O)(c1ccc(Cl)cc1)c1ccc2nc(N3CCC3)c(Oc3ccc(C#N)cc3)c(Cl)c2c1 (single isomer, unassigned) [Example 32c, 4-((2-(Azetidin-1-yl)-4-chloro-6-((4-chlorophenyl)(hydroxyl)(1-methyl-1H-imidazol-5-yl)methyl)quinolin-3-yl)oxy)benzonitrile] |  | 101 |  |  |  | 0.056
Cn1cncc1C(O)(c1ccc(Cl)cc1)c1ccc2nc(Cl)c(Oc3ccccc3)c(Cl)c2c1 (stereo not shown) [Example 1, (4-Chlorophenyl)(2,4-dichloro-3-phenoxyquinolin-6-yl)(1-methyl-1H-imidazol-5-yl)methanol] | 0.11 |  | 0.67 µM | 86 |  | 
CCN(CC)c1nc2ccc(C(O)(c3ccc(OC)nc3)c3cncn3C)cc2c(Cl)c1Oc1ccccc1 (stereo not shown) [Example 5a, (4-Chloro-2-(diethylamino)-3-phenoxyquinolin-6-yl)(6-methoxypyridin-3-yl)(1-methyl-1H-imidazol-5-yl)methanol] |  |  |  | 104 | 0.13 | 
CCN(CC)c1nc2ccc(C(O)(c3ccc(C(F)(F)F)nc3)c3cncn3C)cc2c(Cl)c1Oc1ccccc1 (stereo not shown) [Example 6a, (4-Chloro-2-(diethylamino)-3-phenoxyquinolin-6-yl)(1-methyl-1H-imidazol-5-yl)(6-(trifluoromethyl)pyridin-3-yl)methanol] |  |  |  | 102 | 0.096 | 
CCN(CC)c1nc2ccc(C(O)(c3cccnc3)c3cccc(Cl)c3)cc2c(Cl)c1Oc1ccccc1 (stereo not shown) [Example 7, (4-Chloro-2-(diethylamino)-3-phenoxyquinolin-6-yl)(3-chlorophenyl)(pyridin-3-yl)methanol] |  |  |  | 91 | 0.11 | 
CCN(CC)c1nc2ccc(C(O)(c3cncs3)c3cncn3C)cc2c(Cl)c1Oc1ccccc1 (stereo not shown) [Example 8, (4-Chloro-2-(diethylamino)-3-phenoxyquinolin-6-yl)(1-methyl-1H-imidazol-5-yl)(thiazol-5-yl)methanol.TFA] |  |  |  | 95 | 0.048 | 
COc1ccc(C(O)(c2ccc3nc(N(C)C)c(Oc4ccccc4)c(Cl)c3c2)c2cncn2C)cn1 (stereo not shown) [Example 17, (4-Chloro-2-(dimethylamino)-3-phenoxyquinolin-6-yl)(6-methoxypyridin-3-yl)(1-methyl-1H-imidazol-5-yl)methanol] |  |  |  | 99 | 0.11 | 
Cn1cncc1C(O)(c1ccc(Cl)cc1)c1ccc2nc(C#N)c(Oc3ccccc3)c(Cl)c2c1 (stereo not shown) [Example 19, 4-Chloro-6-((4-chlorophenyl)(hydroxy)(1-methyl-1H-imidazol-5-yl)methyl)-3-phenoxyquinoline-2-carbonitrile.TFA] |  |  |  | 85 | 0.17 | 
CCN(CC)c1nc2ccc(C(O)(c3ccc(Cl)cc3)c3cncn3C)cc2c(C(F)(F)F)c1Oc1ccc(Cl)cc1 (stereo not shown) [Example 26, (3-(4-Chlorophenoxy)-2-(diethylamino)-4-(trifluoromethyl)quinolin-6-yl)(4-chlorophenyl)(1-methyl-1H-imidazol-5-yl)methanol.TFA] |  |  |  | 89 | 0.51 | 
CCN(CC)c1nc2ccc(C(O)(c3ccc(C(F)(F)F)nc3)c3cncn3C)cc2c(C(F)(F)F)c1Oc1ccc(Cl)cc1 (stereo not shown) [Example 27a, (3-(4-Chlorophenoxy)-2-(diethylamino)-4-(trifluoromethyl)quinolin-6-yl)(1-methyl-1H-imidazol-5-yl)(6-(trifluoromethyl)pyridin-3-yl)methanol] |  |  |  | 89 | 0.18 | 
CCN(CC)c1nc2ccc(C(O)(c3ccc(OC)nc3)c3cncn3C)cc2c(C(F)(F)F)c1Oc1ccc(Cl)cc1 (stereo not shown) [Example 28, (3-(4-Chlorophenoxy)-2-(diethylamino)-4-(trifluoromethyl)quinolin-6-yl)(6-methoxypyridin-3-yl)(1-methyl-1H-imidazol-5-yl)methanol.TFA] |  |  |  | 99 | 0.12 | 
Cn1cncc1C(O)(c1ccc(C(F)(F)F)nc1)c1ccc2nc(N3CCC3)c(Oc3ccc(Cl)cc3)c(Cl)c2c1 (stereo not shown) [Example 30a, (2-(Azetidin-1-yl)-4-chloro-3-(4-chlorophenoxy)quinolin-6-yl)(1-methyl-1H-imidazol-5-yl)(6-(trifluoromethyl)pyridin-3-yl)methanol] | 0.0018 |  | 0.14 µM | 93 |  | 
CN(c1ccccc1)c1c(Cl)nc2ccc(C(O)(c3ccc(Cl)cc3)c3cncn3C)cc2c1Cl (stereo not shown) [Example 38, (4-Chlorophenyl)(2,4-dichloro-3-(methyl(phenyl)amino)quinolin-6-yl)(1-methyl-1H-imidazol-5-yl)methanol] | 0.035 |  | 0.52 µM and ~1 µM | 85 |  | 

Reference: US9303015B2, “Heteroaryl linked quinolinyl modulators of RORγt” (Janssen Pharmaceutica NV, priority 2012, dated 2016)
